From patent US8273553B2, “Production of growth hormone in serum-free cell culture medium for mammalian cells” (Ares Trading S.A., priority 2004, dated 2012)
Read-outs that look alike come from different tables or passages of the source. Values belong to the compound of their own block, whether it stands above or below them.

Columns and labels:
[1] = system: hGH expressing C127 cells; test: rhGH productivity of hGH expressing C127 cells in roller bottles, DMEM supplemented with trace elements (Example 1); assay type: cell-based, murine; conditions: for average productivity increase compared to control: 10 μM continuously added to DMEM, production phase 14 days; for productivity increase at the assayed concentration (in words): 10 μM in DMEM; for % INCREASE OF PRODUCTIVITY: single ion in DMEM at growth medium concentration: Zn 1.50300, Cu 0.02560, Se 0.11400, Co 0.00840 μM; for productivity increase, amino acid added together with the metals: Zn 0.5 μM, Cu 0.02 μM, Ferric Citrate 4.8 μM plus Gln 4.8 mM or Cys 0.29 mM
Procedure: The addition of the different supplements assayed (metal solutions etc.) in different experiments was carried out directly on fresh culture medium.
Genetically modified C127 murine cells (ATCC CRL 1616) were used for the expression of the recombinant human growth hormone (rhGH). The vector is based on BPV69T comprising the pBR322 multiple cloning site and comprising 1.6 kb of the rhGH minigene under the control of mouse metallothionein-1 (MT-1) promoter. Cultures derived from one Working Cell Bank obtained from different rhGH production batches were used in the experiments.
Cell cultures were kept incubated at 36° C.±0.5° C. and 0.4 rpm in 2125 cm^2 roller bottles containing 375 mL±15 mL of culture medium or in 1700 cm cm^2 roller bottles containing 300 mL of culture medium.
Culture medium used for the rhGH production phase was DMEM with 4.5 g/L glucose buffered with sodium bicarbonate (3.7 g/L).
Measurement of rhGH in the culture medium was carried out daily by reverse-phase HPLC titration:
Chromatography conditions are: • Elution by gradient: starting with a mixture phase A/phase B 60/40 ending at phase A/phase B 20/80. Gradient complete in 5 minutes (slightly variable depending on instrumentation in use) • Injection volume 50 μliters • Detection: UV absorbance at 215 nm. • P Calibration curve: r-hGH standard at 10, 50, 100, 120 and 150 μg/ml
The r-hGH concentration of a sample is determined by comparison with standard r-hGH concentrations.
Productivity is expressed as mg of rhGH per roller bottle. Raw data are rhGH concentration in the harvest (as measured by HPLC) and total number of roller bottles harvested. Typically a roller bottle during harvest phase contains around 10^9 cells.

[2] = system: r-hGH producing cells of working cell bank 15 (WCB15); test: r-hGH productivity in six-well plates (P6 system), DMEM with additions (Example 2); assay type: cell-based; conditions: for average productivity, % of control: duplicate; for response μg/well/hrvst / response as % “−1−1−1”: Cr 2.5 nM, Ni 1 nM in DMEM, average of 14 harvests; for response as % “−1−1−1”: relative to no addition; for % increase of hGH productivity: 6-well system
Procedure: The experiments were carried out using the working cell bank 15 (WCB15), which is now in current use in normal production.
Scale-down screening experiments were carried out in six-well plates COSTAR P6 of treated CELLBIND polystyrene (CORNING catalogue No. 3335) supplied with 5 mL of culture medium per well. In this case P6 plates were seeded with cells taken from the subculture 3 (standard manufacturing process) to an approximate density of 5×10^5 viable cells/well and then incubated at 37° C., within controlled atmosphere of CO2 at 5%, with standard growth medium or under 13% CO2 when changing to DMEM production medium modified as per the specific experimental plan.
(§1) Measurement of r-hGH in the culture medium was carried out daily by the currently approved reverse-phase HPLC titration.
In other experiments, metal trace elements were added to the DMEM in three concentrations and tested for effects on r-hGH productivity in 6-well plates. Each concentration was tested in duplicate and the average value was calculated. In all cases the concerned salt was prepared as 1000× stock solution from which the corresponding aliquots were taken and added to the medium.

[3] = system: r-hGH producing cells of working cell bank 15 (WCB15); assay type: cell-based; conditions: for Product. up to H14 / Product. up to H25: relative to control
Procedure: According to the approved work instructions, cell cultures were kept incubated at 36° C.±0.5° C. and 0.4 rpm in 1700 cm^2 roller bottles containing 400 mL±20 mL of culture medium.
as §1

[4] = system: cell monolayer of rhGH-producing cultures; test: peeling-off: detachment of the cell monolayer from the roller bottles; conditions: roller bottles with CDX, second part of harvest period
[5] = pH in a range of 6.5 to 8.5; cited from earlier work

Compound: O.O.[Ba+2].[Cl-].[Cl-] [Ba, Barium Chloride (BaCl2.2H2O)]
average productivity increase compared to control [1]: 1.1% | productivity increase at the assayed concentration (in words) [1]: Neither Barium nor Chromium showed productivity increase | average productivity, % of control ([2]; 1 nM in DMEM): 103.1% | average productivity, % of control ([2]; 10 nM in DMEM): 101.9% | average productivity, % of control ([2]; 100 nM in DMEM): 98.9%

Compound: O.O.O.O.O.O.O.O.O=S(=O)([O-])[O-].O=S(=O)([O-])[O-].O=S(=O)([O-])[O-].[Cd+2].[Cd+2].[Cd+2] [Cd, Cadmium Sulphate (CdSO4.8/3H2O)]
increase in r-hGH productivity over the control ([3]; Cd 100 nM, roller bottles, two independent experiments): 12-15% | average productivity, % of control ([2]; 1 nM in DMEM): 100.8% | average productivity, % of control ([2]; 10 nM in DMEM): 103.6% | increase of productivity ([2]; 100 nM): 20% | average productivity, % of control ([2]; 100 nM in DMEM): 120.6%

Compound: O.O.O.O.O.O.[Cl-].[Cl-].[Co+2] [Co, Cobalt Chloride (CoCl2.6H2O)]
Product. up to H14 ([3]; Co 1 mcrM added to DMEM): 107% | Product. up to H25 ([3]; Co 1 mcrM added to DMEM): 102% | Product. up to H14 ([3]; Co 2 mcrM added to DMEM): 110% | Product. up to H25 ([3]; Co 2 mcrM added to DMEM): 102% | Product. up to H14 ([3]; Co 5 mcrM added to DMEM): 113% | Product. up to H25 ([3]; Co 5 mcrM added to DMEM): 101% | Product. up to H14 ([3]; Co 10 mcrM added to DMEM): 117% | Product. up to H25 ([3]; Co 10 mcrM added to DMEM): 104% | average productivity increase compared to control [1]: 32.4% | rhGH productivity increase compared to control, continued induction ([1]; cobalt continuously added (10 μM)): 32.5% | rhGH productivity increase compared to control, intermittent induction ([1]; cobalt intermittently added (20 μM CoCl2.6H2O)): 9% | % INCREASE OF PRODUCTIVITY [1]: −3.20% | statistical analysis of effect on productivity (in words) ([2]; 2^3 factorial design, Co 5 mcrM): significant effect on productivity | response μg/well/hrvst ([2]; Co 5 mcrM): 272.1 μg/well/hrvst | response as % “−1−1−1” ([2]; Co 5 mcrM): 107.1%

Compound: O.O.O.O.O.O.O.O.O.O.O.O.O=S(=O)([O-])[O-].O=S(=O)([O-])[O-].[Cr+3].[K+] [Cr, Chromium Potassium Sulfate (K[Cr(SO6H4)2(H2O)2].6H2O)]
productivity increase at the assayed concentration (in words) [1]: Neither Barium nor Chromium showed productivity increase | average productivity, % of control ([2]; 1 nM in DMEM): 102.0% | average productivity, % of control ([2]; 10 nM in DMEM): 102.8% | average productivity, % of control ([2]; 100 nM in DMEM): 97.8% | response μg/well/hrvst ([2]; Co 5 mcrM): 253.6 μg/well/hrvst | response as % “−1−1−1” ([2]; Co 5 mcrM): 99.8%

Compound: O.O.O.O.O.O=S(=O)([O-])[O-].[Cu+2] [Cu, Copper Sulfate (CuSO4.5H2O)]
increase in productivity ([1]; Copper 0.02 μM in DMEM): 32.1%±9.4% | optimal supplementation concentration in DMEM ([1]; Zinc 0.5 μM and Ferric Citrate 4.8 μM constant): 25.6 nM | % INCREASE OF PRODUCTIVITY [1]: 37.50%

Compound: [Mn] [Mn]
average productivity, % of control ([2]; 1 nM in DMEM): 101.3% | average productivity, % of control ([2]; 10 nM in DMEM): 103.8% | average productivity, % of control ([2]; 100 nM in DMEM): 101.8%

Compound: O.O.O.O.O.O.O=[N+]([O-])[O-].O=[N+]([O-])[O-].[Ni+2] [Ni, Nickel Nitrate (Ni(NO3)2.6H2O)]
average productivity, % of control ([2]; 1 nM in DMEM): 103.1% | average productivity, % of control ([2]; 10 nM in DMEM): 102.1% | average productivity, % of control ([2]; 100 nM in DMEM): 98.6% | response μg/well/hrvst ([2]; Co 5 mcrM): 257.0 μg/well/hrvst | response as % “−1−1−1” ([2]; Co 5 mcrM): 101.2%

Compound: O.O.O.O.O.O=[Se]([O-])[O-].[Na+].[Na+] [Se, Sodium Selenite (Na2SeO3.5H2O)]
% INCREASE OF PRODUCTIVITY [1]: −3.10% | average productivity, % of control ([2]; 1 nM in DMEM): 101.5% | average productivity, % of control ([2]; 10 nM in DMEM): 102.4% | average productivity, % of control ([2]; 500 nM in DMEM): 101.4%

Compound: [Sn] [Sn]
average productivity, % of control ([2]; 1 nM in DMEM): 101.8% | average productivity, % of control ([2]; 10 nM in DMEM): 97.7% | average productivity, % of control ([2]; 100 nM in DMEM): 96.5% | effect of higher concentrations on productivity (in words) ([2]; highest tested concentrations): higher concentrations seem to reduce productivity

Compound: O.O.O.O.O.O.O.O=S(=O)([O-])[O-].[Zn+2] [Zn, Zinc sulfate (ZnSO4.7H2O)]
concentration at which maximum productivity level (plateau) is observed ([1]; Ferric Citrate 4.8 μM and Copper 0.025 μM constant): above 200 nM | increase in productivity ([1]; Zinc 0.5 μM in DMEM): 16.8%±1.6% | increase in productivity ([1]; Zinc 1.5 μM in DMEM): 10.3%±5.0% | productivity at plateau over the average control value ([1]; Zinc above 200 nM, Ferric Citrate 4.8 μM, Copper 0.025 μM): about 60% | % INCREASE OF PRODUCTIVITY [1]: 12.10%

Compound: N[C@@H](CSSC[C@H](N)C(=O)O)C(=O)O [cystine, L-cystine]
productivity increase, amino acid added together with the metals [1]: 69.9%

Compound: NC(=O)CC[C@H](N)C(=O)O [glutamine, L-glutamine]
productivity increase, amino acid added together with the metals [1]: 81.1%

peeling off in the roller bottles (visual observation) [4]: much less peeling off
Compound: Methyl-β-Cyclodextrin [CDX]
productivity relative to the control ([3]; CDX 116 mg/L (0.1 mM), Cadmium 0.1 micromolar, Cobalt 1 micromolar): 104% | % increase of hGH productivity ([2]; CDX 25 mg/L, 0.02 mM): 2% | % increase of hGH productivity ([2]; CDX 50 mg/L, 0.04 mM): 4% | % increase of hGH productivity ([2]; CDX 80 mg/L, 0.07 mM): 5% | % increase of hGH productivity ([2]; CDX 116 mg/L, 0.1 mM): 7% | increase in productivity ([2]; CDX only (FIG. 19)): 7%

Compound: hGH: single polypeptide chain of 191 amino acids having two disulfide bonds
solubility in aqueous buffers [5]: > 10 µg/mL
